# Values of other authors, collected in patent US11629364B2, “Methods for synthesizing anticoagulant polysaccharides” (OPTIMVIA, LLC, priority 2019, dated 2023).
# Settings: pH 8.0
structure (smiles),measurement,value
"Nc1ncnc2c1ncn2[C@@H]1O[C@H](COP(=O)(O)OS(=O)(=O)O)[C@@H](OP(=O)(O)O)[C@H]1O [PAPS, 3′-phosphoadenosine 5′-phosphosulfate]",half-life of PAPS,about 20 hours
